Test [1] concerns the target T1, MAGL (Mus musculus, UniProt O35678).
T1 construct: Proteomes (mouse brain membrane fraction or cell lysates); from tissue; host or cells: mouse brain membrane fraction (or unspecified cell lysates)
T1 sequence (O35678 1-303): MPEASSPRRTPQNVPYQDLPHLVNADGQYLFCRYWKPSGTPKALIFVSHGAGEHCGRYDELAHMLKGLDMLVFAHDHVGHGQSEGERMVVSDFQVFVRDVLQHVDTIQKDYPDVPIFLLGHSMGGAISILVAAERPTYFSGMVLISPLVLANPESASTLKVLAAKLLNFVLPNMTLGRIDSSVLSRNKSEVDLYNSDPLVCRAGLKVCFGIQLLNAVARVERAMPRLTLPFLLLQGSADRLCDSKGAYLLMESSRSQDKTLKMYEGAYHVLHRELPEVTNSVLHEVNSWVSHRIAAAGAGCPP
The test is described as follows: In vitro competitive activity-based protein profiling (mouse), MAGL. To be noted: for inhibition at 1 µM: mouse proteome, in vitro, read-out: % Inhibition at 1 μM MAGL; for IC50: mouse brain membrane fraction or cell lysates, 30 min preincubation at 37° C, FP-Rh probe. Type of test: biochemical. Here is the method: (§1) In Vitro Competitive Activity-Based Protein Profiling (Mouse).
(§2) Proteomes (mouse brain membrane fraction or cell lysates) (50 μL, 1.0 mg/mL total protein concentration) were preincubated with varying concentrations of inhibitors at 37° C. After 30 min, FP-Rh (1.0 μL, 50 μM in DMSO) was added and the mixture was incubated for another 30 min at 37° C. Reactions were quenched with SDS loading buffer (50 μL-4×) and run on SDS-PAGE.

The target in test [2] is T2, FAAH (Mus musculus, UniProt O08914).
T2 construct: Proteomes (mouse brain membrane fraction or cell lysates); from tissue; host or cells: mouse brain membrane fraction (or unspecified cell lysates)
T2 sequence (O08914 1-579): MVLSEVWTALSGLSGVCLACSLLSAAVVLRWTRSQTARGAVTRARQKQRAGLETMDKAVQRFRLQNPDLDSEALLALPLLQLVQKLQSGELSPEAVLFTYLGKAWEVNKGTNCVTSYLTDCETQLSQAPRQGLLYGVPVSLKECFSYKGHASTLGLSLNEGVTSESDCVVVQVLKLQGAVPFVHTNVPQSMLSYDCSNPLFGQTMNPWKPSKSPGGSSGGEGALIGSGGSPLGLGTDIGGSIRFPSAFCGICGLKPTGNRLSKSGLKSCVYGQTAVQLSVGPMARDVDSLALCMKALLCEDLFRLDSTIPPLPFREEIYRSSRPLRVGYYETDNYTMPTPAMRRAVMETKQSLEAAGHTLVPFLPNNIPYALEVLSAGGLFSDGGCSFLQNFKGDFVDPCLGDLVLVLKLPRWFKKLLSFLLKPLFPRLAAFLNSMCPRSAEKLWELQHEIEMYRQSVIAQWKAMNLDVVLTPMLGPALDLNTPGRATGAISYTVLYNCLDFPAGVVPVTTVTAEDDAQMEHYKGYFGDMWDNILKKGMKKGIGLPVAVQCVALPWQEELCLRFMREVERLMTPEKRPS
The test is described as follows: In vitro competitive activity-based protein profiling (mouse), FAAH. Type of test: biochemical. The conditions noted are these: for inhibition at 1 µM: mouse proteome, in vitro; for IC50: mouse brain membrane fraction or cell lysates, 30 min preincubation at 37° C, FP-Rh probe. The procedure, abridged: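 Mouse brain membrane fraction or cell lysates (1.0 mg/mL protein) preincubated with inhibitors 30 min at 37° C, then FP-Rh probe 30 min at 37° C. SDS-PAGE fluorescence band intensity gave FAAH activity.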

The target in test [3] is T3, ABHD6 (Mus musculus, UniProt Q8R2Y0).
T3 construct: Proteomes (mouse brain membrane fraction or cell lysates); from tissue; host or cells: mouse brain membrane fraction (or unspecified cell lysates)
T3 sequence (Q8R2Y0 1-336): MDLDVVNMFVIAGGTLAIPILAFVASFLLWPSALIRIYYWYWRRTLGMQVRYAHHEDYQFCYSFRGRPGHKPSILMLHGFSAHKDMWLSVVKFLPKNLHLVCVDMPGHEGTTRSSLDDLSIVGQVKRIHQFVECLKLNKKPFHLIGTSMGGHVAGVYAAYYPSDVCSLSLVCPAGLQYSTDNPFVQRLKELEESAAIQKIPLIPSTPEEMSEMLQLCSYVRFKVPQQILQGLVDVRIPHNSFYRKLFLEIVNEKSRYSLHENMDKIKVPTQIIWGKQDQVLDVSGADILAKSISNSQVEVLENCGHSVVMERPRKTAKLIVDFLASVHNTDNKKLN
Nature of the test: In vitro competitive activity-based protein profiling (mouse), ABHD6. The test is classed as biochemical. The conditions noted are these: for inhibition at 1 µM: mouse proteome, in vitro, read-out: % Inhibition at 1 μM ABHD6; for IC50: mouse brain membrane fraction or cell lysates, 30 min preincubation at 37° C, FP-Rh probe. Here is the method: as §1, §2

The target of test [4] is T1, MAGL. The test is described as follows: Mouse brain proteomes from inhibitor treated mice, MAGL. The test is classed as in vivo. The conditions noted are these: 5 mg/kg oral gavage, C57Bl/6J mice, brain proteome 4 h after administration. The protocol: (§3) Preparation of Mouse Brain Proteomes from Inhibitor Treated Mice.
(§4) Inhibitors were administered to wild-type C57Bl/6J by oral gavage in a vehicle of polyethylene glycol.

In test [5] the target is T2, FAAH. Nature of the test: Mouse brain proteomes from inhibitor treated mice, FAAH. The conditions noted are these: 5 mg/kg oral gavage, C57Bl/6J mice, brain proteome 4 h after administration. Type of test: in vivo. Here is the method: as §3
Inhibitors were administered to wild-type C57Bl/6J by oral gavage in a vehicle of polyethylene glycol. Each animal was sacrificed 4 h following administration and brain proteomes were prepared and analyzed according to previously established methods (See Niphakis, M. J., et al. (2011) ACS Chem. Neurosci. and Long, J. Z., et al. Nat. Chem. Biol. 5:37-44)

The target in test [6] is T3, ABHD6. The test is described as follows: Mouse brain proteomes from inhibitor treated mice, ABHD6. Type of test: in vivo. To be noted: 5 mg/kg oral gavage, C57Bl/6J mice, brain proteome 4 h after administration. Here is the method:
as §3, §4

By inhibition is commonly meant the relative decrease from the control value, in per cent. One may read the IC50 as the concentration at which inhibition is half-maximal. The low end stands for inhibition by little substance, the high end for a need for much substance. As for `CS(=O)(=O)N[C@H]1CCN(c2cc(C(F)(F)F)ccc2CN2CCN(C(=O)OC(C(F)(F)F)C(F)(F)F)CC2)C1` [Example 61, 1,1,1,3,3,3-hexafluoropropan-2-yl (S)-4-(2-(3-(methylsulfonamido)pyrrolidin-1-yl)-4-(trifluoromethyl)benzyl)piperazine-1-carboxylate], the results for the inhibition at 1 µM in test [1], in test [2] and in test [3] were > 75%, < 25% and < 25%, respectively. For the same compound, the IC50 in test [1] is < 100 nM; in test [2] it was > 1000 nM; in test [3], > 1000 nM. Also, the inhibition at 5 mg/kg was > 75% in test [4], < 25% in test [5] and < 25% in test [6].
Regarding `O=C(OC(C(F)(F)F)C(F)(F)F)N1CCN(Cc2ccc(C(F)(F)F)cc2N2CC3CN(C4CC4)CC3C2)CC1` (stereo not drawn) [Example 65, 1,1,1,3,3,3-hexafluoropropan-2-yl 4-(2-(5-cyclopropylhexahydropyrrolo[3,4-c]pyrrol-2(1H)-yl)-4-(trifluoromethyl)benzyl)piperazine-1-carboxylate], the inhibition at 1 µM in test [1] was > 75%; in test [2], < 25%; in test [3] it was 25 to 75%. The IC50 was < 100 nM in test [1], > 1000 nM in test [2] and > 1000 nM in test [3]. For the same compound, the inhibition at 5 mg/kg in test [4], in test [5] and in test [6] was < 25% in each case.
On to `O=C(OC(C(F)(F)F)C(F)(F)F)N1CCN(Cc2ccc(C(F)(F)F)cc2N2CCCC2CO)CC1` (stereo not drawn) [Example 71, 1,1,1,3,3,3-hexafluoropropan-2-yl 4-(2-(2-(hydroxymethyl)pyrrolidin-1-yl)-4-(trifluoromethyl)benzyl)piperazine-1-carboxylate], for which the inhibition at 1 µM in test [1] was > 75%; in test [2], < 25%; in test [3] it was < 25%. Further, the IC50 was < 100 nM in test [1], > 1000 nM in test [2] and > 1000 nM in test [3]. Moreover, the inhibition at 5 mg/kg in test [4] is > 75%; in test [5], < 25%; in test [6], < 25%.
For `O=C(OC(C(F)(F)F)C(F)(F)F)N1CCN(Cc2ccc(C(F)(F)F)cc2N2CCC(CO)CC2)CC1` [Example 74, 1,1,1,3,3,3-hexafluoropropan-2-yl 4-(2-(4-(hydroxymethyl)piperidin-1-yl)-4-(trifluoromethyl)benzyl)piperazine-1-carboxylate], the inhibition at 1 µM was > 75% in test [1], < 25% in test [2] and < 25% in test [3]. The IC50 in test [1] was < 100 nM; in test [2] it was > 1000 nM; in test [3] it was > 1000 nM. Moreover, the results for the inhibition at 5 mg/kg in test [4], in test [5] and in test [6] were 25 to 75%, < 25% and < 25%, respectively.
`O=C(O)C1CN(c2cc(C(F)(F)F)ccc2CN2CCN(C(=O)OC(C(F)(F)F)C(F)(F)F)CC2)CCO1` (stereo not drawn) [Example 75, 4-(2-((4-(((1,1,1,3,3,3-hexafluoropropan-2-yl)oxy)carbonyl)piperazin-1-yl)methyl)-5-(trifluoromethyl)phenyl)morpholine-2-carboxylic acid]: the figures for the inhibition at 1 µM in test [1], in test [2] and in test [3] were > 75%, < 25% and < 25%, respectively. Besides, the half-maximal inhibitory concentration (IC50) in test [1] was < 100 nM; in test [2], > 1000 nM; in test [3], > 1000 nM. In addition, the inhibition at 5 mg/kg in test [4], in test [5] and in test [6] was < 25% throughout.
`O=C(O)[C@@H]1CCCN1c1cc(CN2CCN(C(=O)OC(C(F)(F)F)C(F)(F)F)CC2)cc(C(F)(F)F)c1` [Example 86, (3-((4-(((1,1,1,3,3,3-hexafluoropropan-2-yl)oxy)carbonyl)piperazin-1-yl)methyl)-5-(trifluoromethyl)phenyl)proline]: the inhibition at 1 µM is > 75% in test [1], < 25% in test [2] and 25 to 75% in test [3]. The IC50 in test [1] is 100 to 1000 nM; in test [2], > 1000 nM; in test [3], 100 to 1000 nM. In addition, the values for the inhibition at 5 mg/kg in test [4], in test [5] and in test [6] were > 75%, < 25% and > 75%, respectively.

Values taken from patent publication US9771341B2, “Piperazine carbamates and methods of making and using same” (Abide Therapeutics, Inc., priority 2015, dated 2017).
